# Where a name gives a salt, the structure may show the parent alone.
# Test system: HeLa cells
# Assay: MTT cytotoxicity test
# Conditions: results not shown
# Procedure: In the test, the ability of live cells to reduce the soluble yellow tetrazolium salt (MTT) to blue formazan crystals is used. […] After 3 hours, foetal bovine serum was added to a final concentration of 10%. After various incubation times at 37° C., the incubation medium was removed and 100 μL EMEM containing 0.5 mg/mL MTT (Sigma) was added. The plates were incubated according to the manufacturer's instructions; optical density measurements were carried out using an HTi reader (Biotek, VT Winooski, USA). The number of live cells was calculated according to the protocol (Mosmann, 1983).
smiles,measurement,value
"Cc1c(N)nc(C(CC(N)=O)NCC(N)C(N)=O)nc1C(=O)NC(C(=O)NC(C)C(O)C(C)C(=O)NC(C(=O)NCCc1nc(-c2nc(C(=O)NCCCNCCCCN)cs2)cs1)C(C)O)C(OC1OC(CO)C(O)C(O)C1OC1OC(CO)C(O)C(OC(N)=O)C1O)c1c[nH]cn1 (stereo not shown) [BLM, Bleomycin A5 hydrochloride]",free BLM concentration giving cell mortality similar to Dd-BLM,8 µM

# Reference: US8765666B2, “Adenovirus dodecahedron particles for delivery of pharmaceutical agents” (Instytut Bio chemii i Biofizki PAN, priority 2009, dated 2014)
